From US9545388B2, “Benzenetricarboxylic acid and methods of use” (GEORGETOWN UNIVERSITY, priority 2012, dated 2017)

What was measured:
[1] = tested on: bladder cancer cells derived from T24 cells; experiment: tumor xenograft, bladder cancer cells derived from T24 in nude mice; type: in vivo, female athymic balbc/nude mice; settings: BTA 26 mg/kg intra-peritoneal three times a week
Description: (§2) To produce tumor xenografts, 5×10^6 cells were resuspended in PBS and injected subcutaneously in the flanks of female nude mice. […] Mice were pre-treated twice prior to the inoculation of tumor cell lines. Once detectable tumors started to form, their size was measured with a caliper in three dimensions. Serial measurements were made at two-three day intervals after the identification of the initial cellular mass to determine growth curves in vivo. Tumor volume was calculated using the formula for a prolate spheroid: volume=(4/3)×a^2b, where a is the width and b is the length. All animals were sacrificed when the tumors exceeded 1.5 cm. At the completion of experiments, tumors were excised, weighed and statistical significance of differences in tumor volume were made using two factor repeated measures analysis of variance followed by Fisher's last significant difference test for multiple comparisons.

H1299 cells [2] = experiment: cell cycle analysis of H1299 cells under glucose restriction; type: cell-based, human; settings: glucose restriction (2 mM Glucose), 1 mM BTA
Description: ATP (Panel B) and Oxygen consumption levels (Panel C) in cells cultured in 5 mM glucose and mock treated (DMSO, Control) or treated with BTA, or in cells expressing CIC or CIC-DN, 16 hours after treatments. […] The percentages of cells distributed in the G1-, S-, or G2-phases of the cells cycle are shown. Apoptotic cells are identified as the Sub-G1 (SG) population. […] Cells were stained with anti-Flag (green, panels 1 and 4) and anti-LC3 (red, panels 2 and 5) antibodies, and counterstained with DAPI. Merged images are shown in panels 3 and 6. The results of these immunofluorescence experiments were confirmed with cellular sub-fractionation experiments shown in Panel F. Cytoplasmic (c) and mitochondrial (m) fractions derived from naïve 293T cells (lanes 1,2) or 293T cells expressing CIC (lanes 3,4) or CIC-DN (lanes 5,6) or treated with BTA (lanes 7,8), were probed with anti-CIC, anti-LC3, or anti-mitofilin antibodies, as indicated. The two arrows in the LC3 blot indicate cytosolic (-I) or activated (-II) LC3 forms. […] All images shown were derived from the same autoradiogram at identical times of exposures, but lanes in between samples of interest were eliminated. […] The anti-mitofilin, anti-p62 (employed as a general autophagic marker), anti-CIC, or anti LC3 specific immuno-blots are shown.

LC3 = experiment: immuno-fluorescence and cellular sub-fractionation for LC3 recruitment to mitochondria; type: cell-based
Description: ATP (Panel B) and Oxygen consumption levels (Panel C) in cells cultured in 5 mM glucose and mock treated (DMSO, Control) or treated with BTA, or in cells expressing CIC or CIC-DN, 16 hours after treatments. […] The percentages of cells distributed in the G1-, S-, or G2-phases of the cells cycle are shown. Apoptotic cells are identified as the Sub-G1 (SG) population. […] Cells were stained with anti-Flag (green, panels 1 and 4) and anti-LC3 (red, panels 2 and 5) antibodies, and counterstained with DAPI. Merged images are shown in panels 3 and 6. […]
Cells were grown in Dulbecco's modified Eagle's medium (DMEM, 5 mM glucose, with glutamine and pyruvate from Invitrogen; Carlsbad, Calif.) and supplemented with 10% fetal calf serum (FCS). […] The anti-CIC antibody was obtained from Santa Cruz Biotech (Santa Cruz, Calif.), employed at 1:1000 dilution in immuno-blot and at 1:100 in immuno-fluorescence; the anti-mHsp70 and anti-mitofilin antibody were from Novus Biological (Littleton, Colo.) employed at 1:500 in immuno-fluorescence and 1:1000 in immuno-blot; for the LC3 immuno-blot, a mixture of two antibodies was used each at 1:1000 dilution (Novus Biological). […]

lactate = lactate levels in treated cells; type: cell-based
Description: (§1) The concentration of citrate, lactate, isocitrate, and malate were assessed using specific kits from BioVision (Milpitas, Calif.). Cellular ATP levels were determined via the ATP kit (Promega; Fitchburg, Wis.), while oxygen consumption rates were measured using the BD oxygen biosensor systems (OBS) from BD Bioscience (Franklin Lakes, N.J.). Triplicate samples of 50,000 cells were seeded onto 96-well OBS plates. The number of cells was determined at each time point by sampling cells seeded into side-by-side plates. Fluorescence was measured from the bottom of the well every 24 h and measurements were normalized by subtracting the reading from the same well prior to the addition of the cells (blank). For measurement of reactive oxygen species (ROS), H2DCFDA was used (Invitrogen). Mitochondrial mass was assessed by using mitotracker green (Invitrogen), as per manufacturer instructions, or nonyl acridine orange at a final concentration of 300 nM, followed by analysis by flow cytometry. Mitochondrial membrane potential (MMP) was studied with the JC1 assay kit from Cayman Chemical (Ann Arbor, Mich.).

[3] = cell death by trypan blue exclusion in BTA-treated cells with or without rescue agents; type: cell-based
[4] = tested on: breast cancer MDA-MB-231 cells; experiment: tumor xenograft, breast cancer MDA-MB-231 cells in nude mice; type: in vivo, female athymic balbc/nude mice; settings: MDA-MB-231 xenograft, BTA 26 mg/kg intra-peritoneal three times a week, single agent
Description: as §2

mitochondrial mass = experiment: mitochondrial content by mitofilin and Nonyl-Acridine Orange (NOA); type: cell-based
Description: as §1

[5] = Description: To produce tumor xenografts, 5×10^6 cells were resuspended in PBS and injected subcutaneously in the flanks of female nude mice. For drug treatments, mice were randomized to receive either PBS or a PBS solution of BTA at a concentration 26 mg/kg which was administered via intra-peritoneal route three times a week. Mice were pre-treated twice prior to the inoculation of tumor cell lines. Once detectable tumors started to form, their size was measured with a caliper in three dimensions. Serial measurements were made at two-three day intervals after the identification of the initial cellular mass to determine growth curves in vivo. Tumor volume was calculated using the formula for a prolate spheroid: volume=(4/3)×a^2b, where a is the width and b is the length. All animals were sacrificed when the tumors exceeded 1.5 cm. At the completion of experiments, tumors were excised, weighed and statistical significance of differences in tumor volume were made using two factor repeated measures analysis of variance followed by Fisher's last significant difference test for multiple comparisons. The trial administration of BTA to explore its toxic effects, was conducted on 8 non immuno-compromised mice, randomized in two groups, and injected for five consecutive months. Animals were monitored once a week for the presence of signs of disease, particularly neurological disturbances or weight loss, and they were weighted periodically.
CIC = target: T1, CIC (Homo sapiens, UniProt P53007); settings: in vivo; cited from earlier work
T1 construct: citrate levels in cells expressing endogenous CIC (nM/well) were assessed in 293T cell lines harboring the pcDNA/TO vector; endogenous in cells; host or cells: 293T cells harbouring the empty pcDNA/TO vector

H1299 cells [6] = experiment: cell viability by trypan blue exclusion in H1299 cells; type: cell-based, human; settings: 1 mM BTA, trypan blue exclusion (FIG. 2D)
Description: Negative values are due to subtraction of background rates. […] Cell viability was assessed with trypan blue exclusion.
Cells were grown in Dulbecco's modified Eagle's medium (DMEM, 5 mM glucose, with glutamine and pyruvate from Invitrogen; Carlsbad, Calif.) and supplemented with 10% fetal calf serum (FCS). Early passage cell lines or frozen pellets were used for screening of CIC expression levels (FIG. 1A). All the reagents for the study of complex I activity were purchased from Sigma-Aldrich (St. Louis, Mo.). The CIC specific shRNA vectors were purchased from Origene Technologies (Rockville, Md.). The vectors expressing human CIC untagged or Flag-Myc epitope tagged were also from Origene. The anti-CIC antibody was obtained from Santa Cruz Biotech (Santa Cruz, Calif.), employed at 1:1000 dilution in immuno-blot and at 1:100 in immuno-fluorescence; the anti-mHsp70 and anti-mitofilin antibody were from Novus Biological (Littleton, Colo.) employed at 1:500 in immuno-fluorescence and 1:1000 in immuno-blot; for the LC3 immuno-blot, a mixture of two antibodies was used each at 1:1000 dilution (Novus Biological). The LAMP-1 antibody was from Abcam (Cambridge, UK). The sequences of primers used were: the human cytochome c oxidase: forward: 5′-[…]-3′ (SEQ. ID NO: 1); Reverse:5′ […]-3′ (SEQ. ID NO: 2). […]

MDA-MB-231 cells = experiment: dose dependent growth inhibition of BTA in MDA-MB-231 cells; type: cell-based, human; settings: MBA-MD-231 cells, BTA dose response (FIG. 2B)
Description: Cells were grown in Dulbecco's modified Eagle's medium (DMEM, 5 mM glucose, with glutamine and pyruvate from Invitrogen; Carlsbad, Calif.) and supplemented with 10% fetal calf serum (FCS). Early passage cell lines or frozen pellets were used for screening of CIC expression levels (FIG. 1A). All the reagents for the study of complex I activity were purchased from Sigma-Aldrich (St. Louis, Mo.). The CIC specific shRNA vectors were purchased from Origene Technologies (Rockville, Md.). The vectors expressing human CIC untagged or Flag-Myc epitope tagged were also from Origene. The anti-CIC antibody was obtained from Santa Cruz Biotech (Santa Cruz, Calif.), employed at 1:1000 dilution in immuno-blot and at 1:100 in immuno-fluorescence; the anti-mHsp70 and anti-mitofilin antibody were from Novus Biological (Littleton, Colo.) employed at 1:500 in immuno-fluorescence and 1:1000 in immuno-blot; for the LC3 immuno-blot, a mixture of two antibodies was used each at 1:1000 dilution (Novus Biological). The LAMP-1 antibody was from Abcam (Cambridge, UK). The sequences of primers used were: the human cytochome c oxidase: forward: 5′-[…]-3′ (SEQ. ID NO: 1); Reverse:5′ […]-3′ (SEQ. ID NO: 2). The zebrafish NADH-dehydrogenase: forward: 5′-[…]-3′ (SEQ. ID NO: 3); reverse:5′ […]-3′ (SEQ. ID NO: 4). The zebrafish p53: forward: 5′-ACATGA […]-3′ (SEQ. ID NO: 5); Reverse: 5′ […] 3′ (SEQ. ID NO: 6).

[7] = tested on: lung cancer H1299 cell lines; experiment: tumor xenograft, lung cancer H1299 cells in nude mice; type: in vivo, female athymic balbc/nude mice; settings: BTA 26 mg/kg intra-peritoneal three times a week
Description: as §2

[8] = tested on: glucose-derived fatty acid (FA) synthesis; experiment: metabolism of D-[1,6-13C2] glucose into fatty acids via NMR mass spectrometry; type: cell-based
Source text: The molecular mechanisms by which CIC affects proliferation were examined. The function of CIC has been primarily linked to glucose-derived fatty acid (FA) synthesis, because of its role in citrate export. Therefore, the metabolism of D-[1,6-^13C2] glucose via NMR mass spectrometry was studied. […] Thus, depletion of lipids unlikely represents the only mechanism by which CIC inhibition affects tumor growth.

T1 sequence (P53007 14-311): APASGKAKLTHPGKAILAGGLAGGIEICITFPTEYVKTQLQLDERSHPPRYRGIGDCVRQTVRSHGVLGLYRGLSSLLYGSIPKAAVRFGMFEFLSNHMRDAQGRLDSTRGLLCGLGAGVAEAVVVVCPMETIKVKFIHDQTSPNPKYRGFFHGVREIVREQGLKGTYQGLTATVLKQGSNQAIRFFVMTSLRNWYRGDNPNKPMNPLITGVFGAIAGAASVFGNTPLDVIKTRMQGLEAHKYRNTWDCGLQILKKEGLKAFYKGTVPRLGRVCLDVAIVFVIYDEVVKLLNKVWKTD

## O=C(O)c1cccc(C(=O)O)c1C(=O)O [BTA, 1,2,3-benzenetricarboxylic acid]
[1]
  anti-cancer activity (tumor volume): exhibited anti-cancer activity
H1299 cells [2]
  apoptosis (Sub-G1 population): induction of apoptosis
LC3; 293T cells treated with BTA, sub-fractionation immuno-blot (FIG. 5F lane 8)
  LC3-II in the mitochondrial fraction: enrichment of LC3-II in the mitochondria
LC3; cells treated with BTA
  recruitment of active-lipidated LC3 and lysosomes to the mitochondria: recruitment of the autophagic machinery
lactate
  levels of glucose-derived lactate: enhanced the levels of glucose-derived lactate
[3]; cells treated with BTA
  viability of treated cells: loss of viability
[4]
  anti-cancer activity (tumor volume): exhibited anti-cancer activity
Mitochondrial mass; time course following BTA treatment (FIG. 5G)
  mitochondrial quantity (mitofilin): reduction of mitochondrial quantity as a function of time
[5]; mouse, in vivo
  evidence of illness or toxicity: no evidence of illness or toxicity
  evidence of toxicity: without showing any evidence of toxicity
[5]; non immuno-compromised mice, BTA twice a week for five consecutive months
  body weight: small but statistically significant reduction of the body weight
CIC
  CIC-dependent transport of citrate: suppresses CIC-dependent transport of citrate
H1299 cells [6]
  cell growth / viability: growth inhibition
MDA-MB-231 cells
  proliferation rates: decreased proliferation rates in a dose-dependent manner
[7]
  anti-cancer activity (tumor volume): exhibited anti-cancer activity
[8]; 16 hours after BTA treatment
  total FA levels: modestly reduced
[8]; D-[1,6-13C2] glucose
  ability of cells to convert glucose into FA: severely reduced the ability of cells to convert glucose into FA
[8]; later time points after BTA treatment
  total FA levels: increased

## Cn1cnc(N)c2ncnc1-2 [Compound 3MA, 3-Methyladenine, reference compound]
Mitochondrial mass; 5 mM 3MA added to BTA-treated cells (FIG. 6A)
  mitochondrial amount (NOA) in BTA-treated cells: restored mitochondrial amount

## CC(=O)N[C@@H](CS)C(=O)O [NAC, N-acetyl-cysteine]
[3]; 5 mM methyl-pyruvate or 2 mM NAC added to BTA-treated cells (FIG. 5A)
  prevention of loss of viability in cells treated with BTA: partially prevented loss of viability

## CCCCCCCCCCCCCCCC(=O)O [palmitic acid]
[3]; incubation of BTA-treated cells with palmitic acid
  rescue of proliferation of BTA-treated cells: not sufficient to rescue proliferation
